The subject of test [1] is Pseudomonas aeruginosa J-272. Nature of the test: ED50 in mice infected intraperitoneally with Pseudomonas aeruginosa. The format is in vivo, ddY male mice. Particulars: subcutaneous 1 h and 3 h after inoculation, 1 × 10^4 cells inoculated i.p. in 5% mucin, survival five days after injection. The protocol:
Five-week-old ddY male mice (five constituting one group) weighing 21 to 25 g on average were administered intraperitoneally with 5% mucin suspensions of test microorganisms that were incubated in brain heart infusion agar plates overnight at 37° C.
One hour and three hours after the inoculation, the mice were injected subcutaneously with various concentrations of the test compounds. The ED50 of each test compound was determined from the number of the mice that were still alive five days after injection of the respective doses.

The next test has as its system Salmonella paratyphi A. Put plainly: MIC, agar plate doubling dilution method. The format is cell-based. Particulars: Salmonella enterica, 20 h, read-out: minimum inhibitory concentration (MIC). The protocol:
(§1) Invitro antibacterial activity was measured by the agar plate doubling dilution method described below. A test culture incubated overnight in a heart infusion broth was diluted by 100 to 1000 fold and one […] of the culture was inoculated on heart infusion agars (HI agar) containing various concentrations of a specific compound and the inoculates were incubated at 37° C. for 20 hours.

In test [2] the test system is Staphylococcus aureus 209P. Put plainly: MIC, agar plate doubling dilution method. The format is cell-based. Particulars: HI agar, 37° C., 20 hours, read-out: minimum inhibitory concentration (MIC). As to the method: as §1
Test [3] has as its system Pseudomonas aeruginosa J-272. Put plainly: MIC, agar plate doubling dilution method. The format is cell-based. The note with it: J272, HI agar, 37° C., 20 hours, read-out: minimum inhibitory concentration (MIC). As to the method:
as §1

The next test relates to Proteus mirabilis 9'. Put plainly: MIC, agar plate doubling dilution method. The format is cell-based. Particulars: HI agar, 37° C., 20 hours, read-out: minimum inhibitory concentration (MIC). The protocol: as §1
Test [4] relates to Pseudomonas aeruginosa J-169-CM-222. Nature of the test: MIC, agar plate doubling dilution method. The format is cell-based. The note with it: J169CM222, HI agar, 37° C., 20 hours, read-out: minimum inhibitory concentration (MIC). As to the method:
as §1

In a further test the test system is Shigella flexneri 2b. Nature of the test: MIC, agar plate doubling dilution method. The test is classed as cell-based. Particulars: HI agar, 37° C., 20 hours, read-out: minimum inhibitory concentration (MIC). The protocol: as §1
Test [5] has as its system Pseudomonas aeruginosa J-169. Put plainly: MIC, agar plate doubling dilution method. The test is classed as cell-based. Particulars: J169, HI agar, 37° C., 20 hours, read-out: minimum inhibitory concentration (MIC). The protocol:
as §1

Test [6] has as its system Bacillus subtilis POI-219. Nature of the test: MIC, agar plate doubling dilution method. The format is cell-based. The note with it: POI219, HI agar, 37° C., 20 hours, read-out: minimum inhibitory concentration (MIC). As to the method: as §1
The test system of test [7] is Klebsiella pneumoniae 15c. Put plainly: MIC, agar plate doubling dilution method. The test is classed as cell-based. The note with it: HI agar, 37° C., 20 hours, read-out: minimum inhibitory concentration (MIC). The protocol: as §1
For another test, the system named is Escherichia coli NIHJ. Nature of the test: MIC, agar plate doubling dilution method. The test is classed as cell-based. Particulars: HI agar, 37° C., 20 hours, read-out: minimum inhibitory concentration (MIC). As to the method:
as §1

In brackets after ≈: the same amount, converted by molar mass.

Turning to `CC1(C)S[C@@H]2[C@H](NC(=O)[C@H](NC(=O)N(CCCO)C(=O)c3ccc(O)c(O)c3)c3ccccc3)C(=O)N2[C@H]1C(=O)O` [compound (a), 6-[D(-)-α-{3-(3,4-dihydroxybenzoyl)-3-(3-hydroxypropyl)-1-ureido}-α-phenylacetamido]penicillanic acid], the “ED50 (SC)” value in test [1] is reported as 0.61 mg/head. The MIC in the test with Salmonella paratyphi A is ≤ 0.1 µg/mL; in test [2], 0.78 µg/mL (≈ 1.33 µM); in [3], 0.4 µg/mL (≈ 0.682 µM); in the test on Proteus mirabilis 9', 1.56 µg/mL (≈ 2.66 µM); in test [4], 3.12 µg/mL (≈ 5.32 µM); in the test with Shigella flexneri 2b, ≤ 0.1 µg/mL. For the same molecule, the MIC turned out to be 0.78 µg/mL (≈ 1.33 µM) in test [5], 0.2 µg/mL (≈ 0.341 µM) in test [6], 0.4 µg/mL (≈ 0.682 µM) in [7] and 0.4 µg/mL (≈ 0.682 µM) in the test on Escherichia coli NIHJ.

Regarding `CC1(C)S[C@@H]2[C@H](NC(=O)[C@H](NC(=O)N(CCO)C(=O)c3ccc(O)c(O)c3)c3ccccc3)C(=O)N2[C@H]1C(=O)O` [compound (b), 6-[D(-)-α-{3-(3,4-dihydroxybenzoyl)-3-(2-hydroxyethyl)-1-ureido}-α-phenylacetamide]penicillanic acid], in test [1], the “ED50 (SC)” value stood at 1.20 mg/head. Moreover, the MIC with Salmonella paratyphi A is ≤ 0.1 µg/mL; in [2], 1.56 µg/mL (≈ 2.72 µM); in test [3], 0.78 µg/mL (≈ 1.36 µM); in the test on Proteus mirabilis 9', 3.12 µg/mL (≈ 5.45 µM); in test [4] it was 25 µg/mL (≈ 43.7 µM); in the test with Shigella flexneri 2b, ≤ 0.1 µg/mL. Also, the MIC in test [5] came out at 3.12 µg/mL (≈ 5.45 µM); in test [6], 0.78 µg/mL (≈ 1.36 µM); in test [7] it was 3.12 µg/mL (≈ 5.45 µM); in the test with Escherichia coli NIHJ it was 6.25 µg/mL (≈ 10.9 µM).

Turning to `CC1(C)S[C@@H]2[C@H](NC(=O)[C@H](NC(=O)N(CCOCCO)C(=O)c3ccc(O)c(O)c3)c3ccccc3)C(=O)N2[C@H]1C(=O)O` [compound (c), 6-[D(-)-α-[3-(3,4-dihydroxybenzoyl)-3-{2-(2-hydroxyethoxy)ethyl}-1-ureidol]-α-phenylacetamido]-penicillanic acid], the “ED50 (SC)” value in [1] was 1.48 mg/head. Moreover, the MIC in the test on Salmonella paratyphi A is ≤ 0.1 µg/mL; in test [2], 0.4 µg/mL (≈ 0.649 µM); in [3], 0.2 µg/mL (≈ 0.324 µM); with Proteus mirabilis 9' it was 1.56 µg/mL (≈ 2.53 µM); in [4], 1.56 µg/mL (≈ 2.53 µM); in the test with Shigella flexneri 2b it was ≤ 0.1 µg/mL. The MIC stood at 0.78 µg/mL (≈ 1.26 µM) in [5], 0.1 µg/mL (≈ 0.162 µM) in [6], 0.4 µg/mL (≈ 0.649 µM) in test [7] and 0.4 µg/mL (≈ 0.649 µM) in the test with Escherichia coli NIHJ.

Turning to `COCCN(C(=O)N[C@@H](C(=O)N[C@@H]1C(=O)N2[C@@H]1SC(C)(C)[C@@H]2C(=O)O)c1ccccc1)C(=O)c1ccc(O)c(O)c1` [compound (d), 6-[D(-)-α-{3-(3,4-dihydroxybenzoyl)-3-(2-methyoxyethyl)-1-ureido}-α-phenylacetamide]-penicillanic acid], the “ED50 (SC)” value in test [1] is on record as 1.52 mg/head. In addition, the MIC in the test with Salmonella paratyphi A was ≤ 0.1 µg/mL; in test [2], 0.78 µg/mL (≈ 1.33 µM); in [3], 0.78 µg/mL (≈ 1.33 µM); in the test on Proteus mirabilis 9', 0.2 µg/mL (≈ 0.341 µM); in test [4], 3.12 µg/mL (≈ 5.32 µM); in the test with Shigella flexneri 2b, ≤ 0.1 µg/mL. The MIC turned out to be 3.12 µg/mL (≈ 5.32 µM) in test [5], 0.4 µg/mL (≈ 0.682 µM) in test [6], 0.2 µg/mL (≈ 0.341 µM) in test [7] and 0.4 µg/mL (≈ 0.682 µM) with Escherichia coli NIHJ.

For `CC(=O)OCCCN(C(=O)N[C@@H](C(=O)N[C@@H]1C(=O)N2[C@@H]1SC(C)(C)[C@@H]2C(=O)O)c1ccccc1)C(=O)c1ccc(O)c(O)c1` [compound (e), 6-[D(-)-α-{3-(3,4-dihydroxybenzoyl)-3-(3-acetoxypropyl)-1-ureido}-α-phenylacetamido]-penicillanic acid], the “ED50 (SC)” value in test [1] stood at 1.71 mg/head. Further, the MIC is ≤ 0.1 µg/mL in the test with Salmonella paratyphi A; 1.56 µg/mL (≈ 2.48 µM) in test [2]; 0.4 µg/mL (≈ 0.636 µM) in [3]; 0.78 µg/mL (≈ 1.24 µM) with Proteus mirabilis 9'; 6.25 µg/mL (≈ 9.94 µM) in test [4]; ≤ 0.1 µg/mL in the test on Shigella flexneri 2b. In addition, the MIC was found to be 3.12 µg/mL (≈ 4.96 µM) in test [5], 0.4 µg/mL (≈ 0.636 µM) in [6], 0.4 µg/mL (≈ 0.636 µM) in [7] and 0.78 µg/mL (≈ 1.24 µM) in the test on Escherichia coli NIHJ.

Regarding `CC1(C)S[C@@H]2[C@H](NC(=O)[C@H](NC(=O)N(CCCO)C(=O)c3ccc(O)c(O)c3)c3ccc(O)cc3)C(=O)N2[C@H]1C(=O)O` [compound (f), 6-[D(-)-α-{3-(3,4-dihydroxybenzoyl)-3-(3-hydroxypropyl)-1-ureido}-α-(4-hydroxyphenyl)acetamido]penicillanic acid], the “ED50 (SC)” value in test [1] is reported as 1.18 mg/head. The MIC with Salmonella paratyphi A was ≤ 0.1 µg/mL; in test [2], 0.78 µg/mL (≈ 1.29 µM); in test [3], 0.2 µg/mL (≈ 0.332 µM); in the test on Proteus mirabilis 9', 1.56 µg/mL (≈ 2.59 µM); in [4] it was 3.12 µg/mL (≈ 5.18 µM); in the test on Shigella flexneri 2b, ≤ 0.1 µg/mL. Also, the MIC in test [5] came out at 0.78 µg/mL (≈ 1.29 µM); in test [6], 0.4 µg/mL (≈ 0.664 µM); in [7] it was 0.4 µg/mL (≈ 0.664 µM); with Escherichia coli NIHJ, 0.78 µg/mL (≈ 1.29 µM).

Consider `CN(C(=O)N[C@@H](C(=O)N[C@@H]1C(=O)N2[C@@H]1SC(C)(C)[C@@H]2C(=O)O)c1ccccc1)C(=O)c1ccc(O)c(O)c1` [compound Z, 6-[D(-)-α-{3-(3,4-dihydroxybenzoyl)-3-methyl-1-ureido}-α-phenylacetamido]penicillanic acid, reference compound], for which the “ED50 (SC)” value in test [1] came to 2.30 mg/head. In addition, the MIC in the test on Salmonella paratyphi A is ≤ 0.1 µg/mL; in test [2], 0.4 µg/mL (≈ 0.737 µM); in [3] it was 0.1 µg/mL (≈ 0.184 µM); with Proteus mirabilis 9' it was 0.78 µg/mL (≈ 1.44 µM); in test [4] it was 0.4 µg/mL (≈ 0.737 µM); in the test with Shigella flexneri 2b, ≤ 0.1 µg/mL. The MIC was 0.2 µg/mL (≈ 0.369 µM) in [5], 0.1 µg/mL (≈ 0.184 µM) in test [6], ≤ 0.1 µg/mL in [7] and 0.2 µg/mL (≈ 0.369 µM) in the test on Escherichia coli NIHJ.

For the molecule `CCN1CCN(C(=O)N[C@@H](C(=O)N[C@@H]2C(=O)N3[C@@H]2SC(C)(C)[C@@H]3C(=O)O)c2ccccc2)C(=O)C1=O` [piperacillin, 6-[D(-)-α-(4-ethyl-2,3-dioxo-1-piperazinylcarbonylamino)phenylacetamido]penicillanic acid, reference compound], the “ED50 (SC)” value in test [1] is recorded as 10.0 mg/head. Moreover, the MIC in the test with Salmonella paratyphi A is 0.4 µg/mL (≈ 0.773 µM); in test [2], ≤ 0.2 µg/mL; in test [3], 12.5 µg/mL (≈ 24.2 µM); with Proteus mirabilis 9', 0.78 µg/mL (≈ 1.51 µM); in [4], 25 µg/mL (≈ 48.3 µM); in the test on Shigella flexneri 2b it was 0.78 µg/mL (≈ 1.51 µM). The MIC in test [5] was found to be 12.5 µg/mL (≈ 24.2 µM); in [6], 0.2 µg/mL (≈ 0.386 µM); in test [7] it was 3.12 µg/mL (≈ 6.03 µM); in the test on Escherichia coli NIHJ, 0.2 µg/mL (≈ 0.386 µM).

These data come from patent US4355038A, “α-Substituted ureido-benzylpenicillanic acids” (Chugai Seiyaku Kabushiki Kaisha, priority 1980, dated 1982).
